The values below come from US20250129086A1, “COMPOUND FOR DEGRADING EGFR PROTEIN AND USE THEREOF” (TYK MEDICINES, INC., priority 2021, published 2025).

Assay [1] deals with H1975 (EGFR L858R/T790M double mutation). As to the kind of experiment: Cell antiproliferative assay (CTG, 72 h), H1975. It is filed as cell-based, human. The following applies: Homo sapiens, NCI-H1975, 72 h, Table 2, H1975 cells. In a few lines: (§1)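 Viability by CTG luminescence after 72 h compound exposure, normalised between blank medium and 0.1% DMSO controls, with IC50 from fitted curves. Dosing in triplicate, top 10,000 nM, 4-fold dilutions, applied about 24 h after plating 1500-2500 cells per well.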

In assay [2] the target is T1, EGFR (Homo sapiens, UniProt P00533, DEL746-750).
T1 construct: host or cells: HCC827
T1 sequence (P00533 with tags, fused parts or gaps DEL746-750): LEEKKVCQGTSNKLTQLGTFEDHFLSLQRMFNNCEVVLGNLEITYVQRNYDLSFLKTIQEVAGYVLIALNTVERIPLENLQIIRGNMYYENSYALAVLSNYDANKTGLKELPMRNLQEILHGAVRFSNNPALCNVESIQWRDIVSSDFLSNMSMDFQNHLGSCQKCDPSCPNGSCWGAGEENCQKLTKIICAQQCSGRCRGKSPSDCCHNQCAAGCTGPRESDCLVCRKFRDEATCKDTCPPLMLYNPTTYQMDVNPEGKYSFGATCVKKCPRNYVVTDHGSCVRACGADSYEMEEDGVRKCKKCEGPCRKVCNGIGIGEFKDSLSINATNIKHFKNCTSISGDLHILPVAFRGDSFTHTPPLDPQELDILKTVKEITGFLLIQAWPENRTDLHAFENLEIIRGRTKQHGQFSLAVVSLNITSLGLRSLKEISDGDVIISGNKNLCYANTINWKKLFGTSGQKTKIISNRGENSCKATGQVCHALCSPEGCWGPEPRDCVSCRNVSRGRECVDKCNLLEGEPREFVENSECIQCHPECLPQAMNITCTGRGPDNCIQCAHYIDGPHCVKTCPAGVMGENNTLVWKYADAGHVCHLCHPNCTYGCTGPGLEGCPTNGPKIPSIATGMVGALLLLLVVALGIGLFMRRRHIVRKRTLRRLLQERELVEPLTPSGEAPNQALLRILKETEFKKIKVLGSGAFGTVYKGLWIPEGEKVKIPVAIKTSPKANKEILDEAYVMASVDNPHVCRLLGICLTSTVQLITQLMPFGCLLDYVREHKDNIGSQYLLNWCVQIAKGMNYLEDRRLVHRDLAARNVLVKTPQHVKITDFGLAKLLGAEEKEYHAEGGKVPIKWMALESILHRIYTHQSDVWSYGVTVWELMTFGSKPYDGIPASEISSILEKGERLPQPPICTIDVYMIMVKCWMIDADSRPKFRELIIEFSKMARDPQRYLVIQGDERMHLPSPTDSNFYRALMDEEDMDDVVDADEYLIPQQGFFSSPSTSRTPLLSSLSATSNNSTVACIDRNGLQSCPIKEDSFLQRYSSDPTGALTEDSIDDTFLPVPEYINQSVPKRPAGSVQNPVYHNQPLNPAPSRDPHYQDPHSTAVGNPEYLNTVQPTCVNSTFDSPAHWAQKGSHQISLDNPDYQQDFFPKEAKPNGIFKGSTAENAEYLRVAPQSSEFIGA
The assay is described as follows: EGFR PROTAC In Cell Western assay in HCC827. The following applies: HCC827, EGFR degradation, 16 hours of incubation; for Dmax: HCC827, Table 4; for DC50: Table 4. The class given is cell-based. An excerpt:
Test Example 2 EGFR PROTAC in Cell Western Assay
HCC827 cell culture medium was purchased from Corning. Cell line HCC827 was purchased from BeNa Culture Collection; EGF Receptor (D38B1) XP Rabbit mAb antibody and β-Actin (8H10D10) Mouse mAb antibody were from CST. IRDye 800CW, IRDye 680RD, and Intercept blocking solution (PBS) were purchased from Licor. Triton-100 was purchased from sigma, and 96-well black cell culture imaging microtiter plates were purchased from Agilent.
1) HCC827 cells were cell counted and cells were inoculated into 96-well black cell culture imaging microtiter plates at a density of 40,000 cells per well, with 100 μl per well. The plate was incubated overnight in a CO2 incubator.
2) Day 1: A gradient dilution of the compound to be tested was added to the cells of the culture plate (with a starting concentration of […], 9 concentrations, a dilution ratio of 1:3, 2 duplicate wells), with a final concentration of DMSO being 0.5%, and a blank control of DMSO without compound. The plate was placed in the cell culture incubator for a final 16 hours of incubation.
3) The culture medium was removed from the 96 wells with a pipette and the residual medium was washed with […] of PBS per well on a shaker for 5 min. After the removal of PBS, cells were quickly fixed by adding 150 μl of fresh fixation buffer (3.7% paraformaldehyde) and incubated for 20 min at room temperature.
4) The fixation buffer was removed and […] of Triton elution buffer (0.3% Triton-100) was added to wash for four times on a shaker for 5 minutes each time.
5)[…] LI-COR Odyssey blocking solution was added and the cells were incubated for 1.5 hours at room temperature with slow shaking on a shaker.
6) To block the samples, a primary antibody against EGFR and Actin were prepared using Antibody Dilution Buffer at a ratio of 1:300. The blocking solution was poured out and the diluted primary antibody was added (at a total volume of 50 μl/per well). The cell plate was covered and incubated at 4° C. overnight.
7) The cell plate was washed four times with PBS+Triton X-100 for 5 minutes each time.
8) Fluorescently labeled secondary antibodies IRDye® 680RD and IRDye® 800CW were diluted with Antibody Dilution Buffer (with a ratio of 1:600, at a total volume of 50 μl/well) and then incubated for one hour at room temperature, protected from light.
9) The cell plate was washed four times with PBS+Triton X-100 for 5 minutes each time.
After pipetting the PBS thoroughly, the plate was inverted and imaged on a Burroughs imager. A multiple exposure program was selected, IRDye 680RD Blot was chosen for the first channel, and IRDye 800CW Blot was chosen for the second channel. […] The blank group was the DMSO group, EGFR/Actin was calculated as the EGFR value of the corresponding sample wells, and the degradation rate=100-100*EGFR signal/DMSO signal. The DC50 and Dmax of the degraded EGFR proteins were calculated by fitting curves using the Prism software, 3-parameter method.

Assay [3] relates to PC-9 (EGFR exon 19 deletion). As to the kind of experiment: Cell antiproliferative assay (CTG, 72 h), PC-9. The class given is cell-based, human. The note with it: Homo sapiens, PC-9, 72 h, Table 2, PC-9 cells. In a few lines: as §1
Assay [4] relates to HCC827 (exon 19 deletion mutation). As to the kind of experiment: Cell antiproliferative assay (CTG, 72 h), HCC827. It is filed as cell-based, human. The note with it: Homo sapiens, HCC827, 72 h, Table 2, HCC827 cells. In a few lines: as §1

Consider `COc1cc(N2CCC(N3CCN(C(=O)CCCCN4CCN(c5ccc6c(c5)C(=O)N(C5CCC(=O)NC5=O)C6=O)CC4)CC3)CC2)ccc1Nc1ncc(Cl)c(Nc2ccccc2C(C)=O)n1` (stereo not shown) [Compound T-221], for which the IC50 in assay [1] is 100 to 1000 nM; in assay [3] it was at least 1000 nM; in assay [4] it was at least 1000 nM. Also, the Dmax in assay [2] is below 50%. Also, the DC50 in assay [2] lay in the range of 0.1 to 1 µM.
As to `COc1cc(N2CCC(N3CCN(C(=O)CN4CCC(c5ccc(NC6CCC(=O)NC6=O)cc5)CC4)CC3)CC2)ccc1Nc1ncc(Cl)c(Nc2ccccc2C(C)=O)n1` (stereo not shown) [Compound T-121], the results for the IC50 in assay [1], in assay [3] and in assay [4] were 100 to 1000 nM, at least 1000 nM and 100 to 1000 nM, respectively. In assay [2], the Dmax lay in the range of 50 to 70%. In addition, the DC50 in assay [2] fell in the range of 0.1 to 1 µM.

Usually IC50 stands for the concentration needed to halve the response being measured. As a reminder, the Dmax is the largest share of the target that was removed. A lower Dmax goes with a partial loss of target. In general, DC50 refers to the midpoint of the concentration-degradation curve. A higher DC50 goes with a less potent degrader.
